From patent publication US20240166626A1, “Compounds and Methods for Preventing, Treating, or Ameliorating Airway Disease” (THOMAS JEFFERSON UNIVERSITY, priority 2021, published 2024)

Biological target: β2AR (Homo sapiens, UniProt P07550)
Assay: BRET analysis of β-arrestin2 binding to the β2AR in HEK 293 cells
Format: cell-based
Procedure: Schematic of screening methodologies for cAMP production and β-arrestin binding. Cells were treated with the unbiased beta-agonist isoproterenol (ISO)±test compounds. The primary high throughput screen utilized a luciferase-based cAMP biosensor, GLOSENSORTM (Promega), and an enzyme complementation-based assay, […]® (DiscoveRx). Independent secondary screening utilized a cAMP ELISA and BRET for β-arrestin recruitment. […] Secondary screen for cAMP production by ELISA. […] Cells were lysed and cAMP production was measured. […] Dose response curve for DFPQ as measured by BRET. […] Data for dose response curve was taken 12 min post ISO addition. n=3. […] Cells were lysed and cAMP production was measured by ELISA. […] Cells were read every 2 min post agonist addition. […] Cells were read every three minutes for 18 minutes on a PolarStar Optima plate reader (BMG) to establish peak signal. […] Luminescence was determined at room temperature (23-25° C.) on a PolarStar Optima plate reader (BMG). […] Relative assay bias was calculated from the ratio of normalized cAMP and arrestin recruitment responses. […] BRET was measured using a Tecan Infinite F500 microplate reader. […] Bound [35 S]GTPγS was collected by rapid filtration on GF/B filters, washed 4 times with 4 ml of cold GTPγS wash buffer and analyzed by liquid scintillation counting. […] Band intensity was measured by densitometry using ImageJ. […]

Chain of β2AR (P07550 whole entry): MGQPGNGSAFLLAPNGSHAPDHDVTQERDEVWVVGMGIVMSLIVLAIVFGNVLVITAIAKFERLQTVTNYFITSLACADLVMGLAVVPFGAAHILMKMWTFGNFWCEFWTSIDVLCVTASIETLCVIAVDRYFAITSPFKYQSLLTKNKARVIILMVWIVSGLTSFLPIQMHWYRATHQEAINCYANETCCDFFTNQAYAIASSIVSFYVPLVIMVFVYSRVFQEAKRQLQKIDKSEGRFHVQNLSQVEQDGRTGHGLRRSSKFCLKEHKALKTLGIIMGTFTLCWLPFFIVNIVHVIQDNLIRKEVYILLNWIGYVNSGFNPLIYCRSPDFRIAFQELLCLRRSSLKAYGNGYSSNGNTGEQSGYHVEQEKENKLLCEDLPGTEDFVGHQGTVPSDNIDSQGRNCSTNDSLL

Compound: Fc1ccc(Nc2nc(NC3CCCCC3)c3ccccc3n2)cc1F [DFPQ, N^4-cyclohexyl-N^2-(3,4-difluorophenyl)quinazoline-2,4-diamine]
- β-arrestin2 recruitment to the β2AR (10 μM DFPQ, over the measured time course, FIG. 2A): fully inhibited
- mode of inhibition, global curve fitting and Schild analysis of ISO dose response curves (β-arrestin recruitment readout, FIG. 1D): non-competitive inhibition
